From publication PMC10590756, “Glutarate regulates T cell metabolism and anti-tumour immunity” (Nature Metabolism, 2023)

Key:
[1] = tested on: 5hmC (the reaction product of TET2) in human CD8^+ T cells; test: 5hmC staining by flow cytometry; assay type: cell-based; conditions: DEG 7 days, dose-dependent
Protocol: For 5-hydroxymethylcytosine (5hmC) staining, cells were stained for surface antigens as above and then fixed and permeabilized with the Transcription Factor Buffer Set. Next cells were incubated with 4 M HCl for 10 min at room temperature. Cells were then thoroughly washed and incubated in blocking buffer (0.1% PBS-Triton X-100, 5% FCS) for 30 min at 4 °C. Cells were then incubated with primary anti-5hmC (catalogue no. 10013602, Active Motif) overnight at 4 °C and the day after with secondary antibody for 1 h at room temperature. Flow cytometry was then performed as explained above. Cells were sorted on an FACSAria III (BD Biosciences) after surface antigen staining as described above. Data were analysed using FlowJo v.10.7.2.

B16F10-OVA cancer cells = test: In vitro cytotoxicity of OT1 CD8^+ T cells; assay type: cell-based, mouse; conditions: T cells cultured 7 days with 500 µM DEG
Protocol: Ten thousand B16F10-OVA or SKOV3 cells were seeded per well in 96-well plates and cocultured for a minimum of 14 h with varying ratios of mouse CD8^+ OT1 or human CD8^+RQR8^+ HER2 CAR T cells, respectively. T cells had been treated with or without DEG 7 days before the assay. Wells were washed twice with PBS to remove T cells and the number of remaining target cells was determined by culturing with 10 µg ml^−1 resazurin (catalogue no. R7017, Sigma-Aldrich) and measuring the fluorescence signal in a plate reader. Cytotoxicity was calculated relative to wells with no T cells added. Ten thousand Raji cells were cocultured for a minimum of 14 h with CD19 CAR T cells previously activated for 7 days and cultured with or without DEG. Cytotoxicity was assessed by flow cytometry using the ratio of live Raji cells to CountBright Absolute Counting Beads (catalogue no. C36950, Thermo Fisher Scientific). To determine specific cytotoxicity, data were normalized to the cytotoxicity of the vector-controlled transduced CD8 T cells of the respective donor.

murine OT1 T cells = test: Growth of murine OT1 T cells; assay type: cell-based, mouse; conditions: 500 µM, 7 days
Protocol: B16F10 cells were originally purchased from ATCC (catalogue no. CRL-6475) and genetically modified to express OVA, enhanced green fluorescent protein (GFP) and neomycin phosphotransferase. The resulting OVA expression B16F10-OVA cells were cultured in DMEM (catalogue no. 11995065, Thermo Fisher Scientific) containing 0.75 mg ml^−1 G418 sulphate (catalogue no. 10131027, Thermo Fisher Scientific). HEK 293T cells were purchased from Takara Bio (catalogue no. 632180) and cultured in DMEM. SKOV3 was purchased from ATCC (catalogue no. HTB-77) and cultured in McCoy’s 5A (Modified) Medium (catalogue no. 16600082, Thermo Fisher Scientific). Raji-GFP-Luc cells were purchased from Biocytogen (catalogue no. B-HCL-010) and cultured in Roswell Park Memorial Institute (RPMI) 1640 (catalogue no. 21875, Thermo Fisher Scientific). Jurkat cells were purchased from ATCC (catalogue no. TIB-152) and cultured in RPMI 1640. RAW 264.7 cells were purchased from ATCC (catalogue no. TIB-71) and cultured in RPMI 1640. HeLa cells were a gift from P. Lehner (University of Cambridge) and were authenticated using short tandem repeat profiling (Eurofins Genomics). HeLa cells were cultured in DMEM. […] Cell number and viability was determined using the ADAM-MC Automated Cell Counter (NanoEntek), CellDrop Automated Cell Counter (DeNovix) or TC20 Automated Cell Counter (Bio-Rad Laboratories).

[2] = parameters: method as in PMID 29989593; conditions: approved by the European Union for use as a food additive; cited from earlier work
[3] = target: T1, human full-length HIF-P4H-1 (Homo sapiens, UniProt Q96KS0); test: Cell-free HIF-P4H-1 activity assay (^14CO2 release); assay type: biochemical
T1 construct: The human full-length HIF-P4H-1 and KDM6A enzymes were recombinantly produced using Sf21 insect cells; made in house; host or cells: Sf21 insect cells (baculovirus)
Excerpt: The human full-length HIF-P4H-1 and KDM6A enzymes were recombinantly produced using Sf21 insect cells and the enzymes were purified with anti-FLAG M2 affinity gel as described previously[68],[69]. Briefly, the C terminus FLAG-tagged human HIF-P4H1-2 and KDM6A were generated using PCR and subcloned into pAcG3X and pVL1393 baculovirus expression vectors, respectively. The recombinant baculoviruses were generated by transducing the bacmid DNA into Spodoptera frugiperda Sf9 cells using BaculoGold DNA (HIF-P4H1-2, BD Biosciences) and BacMagic-3 DNA kit (for KDM6A, Novagen). Recombinant proteins were produced by infecting Sf21 insect cells with the corresponding amplified baculoviruses for 72 h at 27 °C. Cells were homogenized in a buffer containing 10 mM Tris, 150 mM NaCl, 100 mM glycine, 0.1% (v/v) Triton X-100, pH 7.8, and a protease inhibitor cocktail tablet without EDTA. The cell lysates were centrifuged at 21,000g for 30 min; the soluble fractions containing the FLAG-tagged proteins were affinity-purified using the anti-FLAG M2 affinity gel (Sigma-Aldrich). […] Protein concentration was measured with NanoDrop and proteins were analysed by SDS–PAGE followed by Coomassie brilliant blue staining. […] The IC50 value of the glutarate analogue was calculated from the inhibition saturation curves.

T1 sequence (Q96KS0 whole entry): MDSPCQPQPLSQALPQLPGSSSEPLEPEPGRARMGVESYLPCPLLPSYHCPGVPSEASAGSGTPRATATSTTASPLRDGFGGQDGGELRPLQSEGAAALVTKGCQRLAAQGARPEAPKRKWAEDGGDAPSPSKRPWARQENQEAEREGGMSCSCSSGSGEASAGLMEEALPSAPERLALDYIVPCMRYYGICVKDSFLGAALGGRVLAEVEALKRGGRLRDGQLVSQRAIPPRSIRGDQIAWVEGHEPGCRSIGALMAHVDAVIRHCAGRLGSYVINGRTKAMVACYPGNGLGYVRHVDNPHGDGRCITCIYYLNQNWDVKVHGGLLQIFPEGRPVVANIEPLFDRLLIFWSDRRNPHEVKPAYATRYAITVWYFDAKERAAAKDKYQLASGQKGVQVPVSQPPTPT

SMILES | 5hmC levels [1] | killing of B16F10-OVA cancer cells by OT1 CD8^+ T cells (B16F10-OVA cancer cells) | growth of murine OT1 T cells (murine OT1 T cells) | toxicity [2] | IC50 [3] [µM]
CCOC(=O)CCCC(=O)OCC [DEG, Diethyl glutarate] | decrease | more proficient at killing | did not affect the growth | non-toxic | –
O=C(O)CCCC(=O)O [glutarate, glutaric acid] | – | – | – | – | 2000
